Where two headings read alike, the source gives them in different places.
Assays:
[1] = test system: Apomorphine-induced agitation; experiment: Reversal of Apomorphine-induced Agitation in Rats (APO); format: in vivo, rat; settings: for PO Max effect (cumulative agitation score over 60 min) / SC Max effect (cumulative agitation score over 60 min): apomorphine 1.0 mg/kg i.v.; for PO LAD (lowest active dose) / SC LAD (lowest active dose): lowest dose at which ≥67% tested animals respond; for SC Dose at max effect / SC Max effect (cumulative agitation score over 60 min) / SC LAD (lowest active dose): subcutaneous route
Method: Apomorphine (1.0 mg/kg, i.v.)-induced agitation was scored every 5 min over the first hour after injection of apomorphine. The score system was: (3) pronounced, (2) moderate, (1) slight, and (0) absent. […] For the present purpose, the cumulative agitation score over the whole 60-min observation period was used as a measure to describe the maximum effect (Max effect).

[2] = biological target: T1, Rat recombinant PDE10A (rPDE10A2) (Rattus norvegicus, UniProt Q9QYJ6); experiment: In vitro assay PDE10A (SPA, 3H-cAMP); format: biochemical; settings: read-out: PIC50 PDE10 (converted)
T1 construct: made in house; host or cells: Sf9 insect cells (baculovirus)
T1 sequence (Q9QYJ6 1-794): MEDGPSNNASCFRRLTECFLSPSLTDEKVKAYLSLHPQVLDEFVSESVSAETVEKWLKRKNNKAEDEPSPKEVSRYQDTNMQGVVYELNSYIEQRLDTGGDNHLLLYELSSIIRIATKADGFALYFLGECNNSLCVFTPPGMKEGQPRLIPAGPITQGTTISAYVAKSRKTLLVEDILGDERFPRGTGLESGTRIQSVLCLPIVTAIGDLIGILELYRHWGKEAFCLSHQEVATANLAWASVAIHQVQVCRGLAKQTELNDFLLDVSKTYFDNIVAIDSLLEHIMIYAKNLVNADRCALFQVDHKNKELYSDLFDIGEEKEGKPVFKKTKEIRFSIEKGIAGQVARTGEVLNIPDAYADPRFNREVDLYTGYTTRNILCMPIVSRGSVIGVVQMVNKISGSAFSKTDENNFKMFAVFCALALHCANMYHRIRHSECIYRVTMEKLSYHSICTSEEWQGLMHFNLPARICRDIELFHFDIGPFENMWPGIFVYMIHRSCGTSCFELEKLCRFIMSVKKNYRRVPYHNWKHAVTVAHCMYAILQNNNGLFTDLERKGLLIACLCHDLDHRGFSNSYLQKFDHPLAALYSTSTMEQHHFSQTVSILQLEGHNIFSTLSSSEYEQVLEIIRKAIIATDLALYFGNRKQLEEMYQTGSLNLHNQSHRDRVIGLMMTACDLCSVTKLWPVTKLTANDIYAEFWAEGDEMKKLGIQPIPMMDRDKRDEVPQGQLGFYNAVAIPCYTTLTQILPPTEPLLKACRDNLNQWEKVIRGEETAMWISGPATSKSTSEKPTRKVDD

[3] = biological target: T2, Human recombinant PDE2A (hPDE2A) (Homo sapiens, UniProt O00408); experiment: In vitro assay PDE2A (SPA, 3H-cGMP); format: biochemical; settings: read-out: pIC50 PDE2 (converted)
T2 construct: made in house; host or cells: Sf9 insect cells (baculovirus)

[4] = -log IC50 expressed in mol/L, rPDE10A2, 60 nM cAMP

T2 sequence (O00408 whole entry): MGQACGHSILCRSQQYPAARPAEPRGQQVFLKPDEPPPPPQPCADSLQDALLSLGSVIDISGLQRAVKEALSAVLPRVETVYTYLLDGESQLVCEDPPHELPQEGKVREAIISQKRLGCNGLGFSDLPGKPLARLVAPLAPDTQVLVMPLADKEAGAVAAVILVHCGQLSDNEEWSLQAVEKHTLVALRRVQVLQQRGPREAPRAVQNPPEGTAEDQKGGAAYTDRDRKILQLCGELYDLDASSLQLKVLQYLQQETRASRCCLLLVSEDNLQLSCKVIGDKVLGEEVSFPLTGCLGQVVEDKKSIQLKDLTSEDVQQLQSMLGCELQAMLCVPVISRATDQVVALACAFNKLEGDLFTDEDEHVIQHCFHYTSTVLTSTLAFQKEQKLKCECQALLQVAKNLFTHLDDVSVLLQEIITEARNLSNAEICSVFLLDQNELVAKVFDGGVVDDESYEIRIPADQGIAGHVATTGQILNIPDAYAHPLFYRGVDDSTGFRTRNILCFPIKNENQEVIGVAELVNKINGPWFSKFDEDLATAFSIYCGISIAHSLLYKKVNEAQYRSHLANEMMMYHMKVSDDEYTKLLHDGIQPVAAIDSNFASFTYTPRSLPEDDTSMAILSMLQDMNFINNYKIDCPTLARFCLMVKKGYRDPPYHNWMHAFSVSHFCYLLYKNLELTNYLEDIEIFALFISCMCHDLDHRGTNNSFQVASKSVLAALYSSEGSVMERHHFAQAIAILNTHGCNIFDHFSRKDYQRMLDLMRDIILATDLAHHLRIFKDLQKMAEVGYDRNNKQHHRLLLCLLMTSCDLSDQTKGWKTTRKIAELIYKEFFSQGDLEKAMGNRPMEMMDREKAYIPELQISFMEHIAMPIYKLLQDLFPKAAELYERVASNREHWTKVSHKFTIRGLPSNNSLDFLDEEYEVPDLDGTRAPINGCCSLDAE

| SMILES | IC50 [2] | IC50 [3] | IC50 [2, 4] | PO Dose at Max Effect [1] | PO Max effect (cumulative agitation score over 60 min) [1] | PO LAD (lowest active dose) [1] | SC Dose at max effect [1] | SC Max effect (cumulative agitation score over 60 min) [1] | SC LAD (lowest active dose) [1] |
| --- | --- | --- | --- | --- | --- | --- | --- | --- | --- |
| Cc1nc2ccc(OC(C)(F)F)cc2n2c(-c3ccccc3Cl)nnc12 [Compound B-25, 1-(2-Chlorophenyl)-8-(1,1-difluoroethoxy)-4-methyl[1,2,4]triazolo[4,3-a]-quinoxaline] | 15.5 nM | 3.89 nM | – | 10 mg/kg | 19 | 10 mg/kg | – | – | – |
| COc1ccc2nc(C)c3nnc(-c4ccccc4Cl)n3c2c1 [Compound B-5, 1-(2-Chlorophenyl)-8-methoxy-4-methyl[1,2,4]triazolo[4,3-a]quinoxaline] | 25.1 nM | 7.59 nM | – | 10 mg/kg | 21 | > 10 mg/kg | – | – | – |
| COc1ccccc1-c1nnc2c(C)nc3ccc(C(=O)NCc4ccccn4)cc3n12 [Compound B-53] | 37.2 nM | 3.09 nM | – | 10 mg/kg | 24 | > 10 mg/kg | – | – | – |
| Cc1nc2ccc(C(=O)NCCN3CCCCC3)cc2n2c(-c3ccccc3Cl)nnc12 [Compound B-45] | 74.1 nM | 1.95 nM | – | – | – | – | 10 mg/kg | 21 | > 10 mg/kg |
| CCOCc1ccc2nc(C)c3nnc(-c4ccccc4)n3c2c1 [Compound B-12, 8-(Ethoxymethyl)-4-methyl-1-phenyl[1,2,4]triazolo[4,3-a]quinoxaline] | 269 nM | 21.4 nM | – | – | – | – | 10 mg/kg | 19 | 10 mg/kg |
| Cc1nc2ccc(C(O)C(F)(F)F)cc2n2c(-c3ccccc3Cl)nnc12 (stereo not shown) [Compound B-21, 1-[1-(2-Chlorophenyl)-4-methyl[1,2,4]triazolo[4,3-a]quinoxalin-8-yl]-2,2,2-trifluoroethanol] | 41.7 nM | 6.46 nM | – | 10 mg/kg | 24 | > 10 mg/kg | – | – | – |
| Cc1nc2ccc(OC(F)(F)F)cc2n2c(-c3ccccc3Cl)nnc12 [Compound B-4a, 1-(2-Chlorophenyl)-4-methyl-8-(trifluoromethoxy)[1,2,4]triazolo[4,3-a]quinoxaline] | 24.5 nM | 8.32 nM | – | 10 mg/kg | 21 | > 10 mg/kg | – | – | – |
| Cc1nc2ccc(C(=O)NCc3ccccn3)cc2n2c(-c3cc(F)ccc3Cl)nnc12 [Compound B-39] | 24 nM | 1 nM | – | 10 mg/kg | 21 | > 10 mg/kg | – | – | – |
| Cc1nc2ccc(C(=O)NCCN3CCCC3)cc2n2c(-c3ccccc3Cl)nnc12 [Compound B-48] | 61.7 nM | 2.09 nM | – | – | – | – | 10 mg/kg | 24 | > 10 mg/kg |
| CCOC(=O)c1ccc2nc(C)c3nnc(-c4ccccc4Cl)n3c2c1 [Compound B-1a, Ethyl 1-(2-chlorophenyl)-4-methyl[1,2,4]triazolo[4,3-a]quinoxaline-8-carboxylate] | – | 4.27 nM | 58.9 nM | 2.5 mg/kg | 22 | > 2.5 mg/kg | – | – | – |
| Cc1nc2ccc(C(=O)NCc3cccc(F)n3)cc2n2c(-c3ccccc3Cl)nnc12 [Compound B-32] | 6.61 nM | 0.251 nM | – | 10 mg/kg | 22 | > 10 mg/kg | – | – | – |
| Cc1nc2ccc(C(=O)NCc3ccccc3)cc2n2c(-c3ccccc3Cl)nnc12 [Compound B-34] | 12 nM | 0.372 nM | – | 2.5 mg/kg | 22 | > 2.5 mg/kg | – | – | – |
| Cc1nc2ccc(C(=O)NCCF)cc2n2c(-c3ccccc3Cl)nnc12 [Compound B-40] | 18.6 nM | 1.02 nM | – | 10 mg/kg | 22 | > 10 mg/kg | – | – | – |
| Cc1nc2ccc(C(=O)NCc3ccccn3)cc2n2c(-c3cc(Cl)ccc3Cl)nnc12 [Compound B-11, 1-(2,5-Dichlorophenyl)-4-methyl-N-(pyridin-2-ylmethyl)[1,2,4]triazolo[4,3-a]quinoxaline-8-carboxamide] | 33.9 nM | 1.62 nM | – | 10 mg/kg | 19 | > 10 mg/kg | – | – | – |

More lines, main results first:

| IC50 [2] | IC50 [3] | IC50 [2, 4] | SMILES | PO Dose at Max Effect [1] | PO Max effect (cumulative agitation score over 60 min) [1] | PO LAD (lowest active dose) [1] | SC Dose at max effect [1] | SC Max effect (cumulative agitation score over 60 min) [1] | SC LAD (lowest active dose) [1] |
| --- | --- | --- | --- | --- | --- | --- | --- | --- | --- |
| 132 nM | 29.5 nM | – | Cc1ncccc1-c1nnc2c(C)nc3ccc(Br)cc3n12 [Compound B-131] | 10 mg/kg | 17 | 10 mg/kg | – | – | – |
| 129 nM | 6.92 nM | – | COc1ccc(-c2nnc3c(C)nc4ccc(C(=O)NCc5ccccn5)cc4n23)c(Cl)c1 [Compound B-74] | 10 mg/kg | 21 | > 10 mg/kg | – | – | – |
| 204 nM | 19.1 nM | – | Cc1nc2ccc(C(=O)N(C)Cc3ccccc3)cc2n2c(-c3ccccc3)nnc12 [Compound B-104] | – | – | – | 2.5 mg/kg | 21 | > 2.5 mg/kg |
| 36.3 nM | 20.4 nM | – | Cc1nc2ccc(C(=O)NCc3ccccn3)cc2n2c(-c3ccc(Cl)cc3Cl)nnc12 [Compound B-108] | 10 mg/kg | 19 | > 10 mg/kg | – | – | – |
| 123 nM | 10.7 nM | – | CCOc1ccc(Cl)c(-c2nnc3c(C)nc4ccc(Br)cc4n23)c1 [Compound B-85] | 10 mg/kg | 21 | > 10 mg/kg | – | – | – |
| 162 nM | 18.2 nM | – | CCOc1ccc(Cl)c(-c2nnc3c(C)nc4ccc(N5CCN(C)CC5)cc4n23)c1 [Compound B-102] | – | – | – | 10 mg/kg | 21 | > 10 mg/kg |
| 15.5 nM | 6.17 nM | – | COCCNc1ccc2nc(C)c3nnc(-c4ccccc4Cl)n3c2c1 [Compound B-67] | 10 mg/kg | 21 | > 10 mg/kg | – | – | – |
| – | 9.55 nM | 37.2 nM | Cc1nc2ccc(CN3CCC(O)CC3)cc2n2c(-c3ccccc3Cl)nnc12 [Compound B-81] | – | – | – | 10 mg/kg | 19 | 10 mg/kg |
| 77.6 nM | 7.41 nM | – | Cc1nc2ccc(C(=O)NCCCc3ccccc3)cc2n2c(-c3ccccc3)nnc12 [Compound B-77] | 2.5 mg/kg | 21 | > 2.5 mg/kg | – | – | – |
| 50.1 nM | 11.7 nM | – | Cc1nc2ccc(CN3CCOC(CCF)C3)cc2n2c(-c3ccccc3Cl)nnc12 (stereo not shown) [Compound B-89] | – | – | – | 5 mg/kg | 24 | > 5 mg/kg |
| 263 nM | 95.5 nM | – | Cc1ncccc1-c1nnc2c(C)nc3ccc(C(F)(F)F)cc3n12 [Compound B-167] | 10 mg/kg | 19 | 10 mg/kg | – | – | – |
| 63.1 nM | 6.92 nM | – | COCC1CN(Cc2ccc3nc(C)c4nnc(-c5ccccc5Cl)n4c3c2)CCO1 (stereo not shown) [Compound B-75] | – | – | – | 10 mg/kg | 15 | 2.5 mg/kg |
| 6.61 nM | 5.01 nM | – | Cc1nc2ccc(NCCc3ccccn3)cc2n2c(-c3ccccc3Cl)nnc12 [Compound B-60] | 10 mg/kg | 21 | > 10 mg/kg | – | – | – |
| 117 nM | 25.7 nM | – | Cc1ncccc1-c1nnc2c(C)nc3ccc(CN4CCOCC4)cc3n12 [Compound B-118] | – | – | – | 10 mg/kg | 17 | 10 mg/kg |
| 9.33 nM | 5.62 nM | – | Cc1nc2ccc(CN3CCOC(CCO)C3)cc2n2c(-c3ccccc3Cl)nnc12 (stereo not shown) [Compound B-63] | – | – | – | 10 mg/kg | 19 | 10 mg/kg |
